From ChEMBL document CHEMBL1649095, “A κ Opioid Pharmacophore Becomes a Spinally Selective κ-δ Agonist When Modified with a Basic Extender Arm” (2011)
Calls of active or inactive are those of the source. The calls are words filed in the database; no cut-off is given here.

Assays:
Mus musculus [1] = experiment: Antinociceptive activity in icv dosed HSD:ICR(CD1) mouse by tail flick test; assay type: functional
Mus musculus [2] = experiment: Potency index, ratio of antinociceptive ED50 in icv dosed HSD:ICR(CD1) mouse to antinociceptive ED50 in intrathecally dosed HSD:ICR(CD1) mouse; assay type: functional
Mus musculus [3] = experiment: Antinociceptive activity in intrathecally dosed HSD:ICR(CD1) mouse by tail flick test; assay type: functional
Mus musculus [4] = experiment: Ratio of antinociceptive ED80 in intrathecally dosed HSD:ICR(CD1) mouse coadministered with 5 nmol delta opioid receptor antagonist NTI to ED80 in intrathecally dosed HSD:ICR(CD1) mouse; assay type: functional
HEK293 [5] = experiment: Selectivity for kappa/delta opioid receptor expressed in HEK293 cells over kappa opioid receptor expressed in HEK293 cells by intracellular calcium release assay; assay type: cell-based
HEK293 [6] = experiment: Selectivity for kappa/delta opioid receptor expressed in HEK293 cells over kappa/mu opioid receptor expressed in HEK293 cells by intracellular calcium release assay; assay type: cell-based
Mus musculus [7] = experiment: Ratio of antinociceptive ED80 in intrathecally dosed HSD:ICR(CD1) mouse coadministered with 2.5 nmol kappa opioid receptor antagonist norBNI to ED80 in intrathecally dosed HSD:ICR(CD1) mouse; assay type: functional
HEK293 [8] = experiment: Selectivity for kappa/delta opioid receptor expressed in HEK293 cells over mu opioid receptor expressed in HEK293 cells by intracellular calcium release assay; assay type: cell-based
HEK293 [9] = experiment: Selectivity for kappa/delta opioid receptor expressed in HEK293 cells over mu/delta opioid receptor expressed in HEK293 cells by intracellular calcium release assay; assay type: cell-based
[10] = target: Opioid receptors; delta & kappa (Homo sapiens) (UniProt P41145+P41143); experiment: Agonist activity at kappa/delta opioid receptor expressed in HEK293 cells coexpressing chimeric Giiq protein assessed as stimulation of intracellular calcium; assay type: functional, cell-based
Chain of Opioid receptors; delta & kappa (Homo sapiens) (P41143 whole entry, looked up): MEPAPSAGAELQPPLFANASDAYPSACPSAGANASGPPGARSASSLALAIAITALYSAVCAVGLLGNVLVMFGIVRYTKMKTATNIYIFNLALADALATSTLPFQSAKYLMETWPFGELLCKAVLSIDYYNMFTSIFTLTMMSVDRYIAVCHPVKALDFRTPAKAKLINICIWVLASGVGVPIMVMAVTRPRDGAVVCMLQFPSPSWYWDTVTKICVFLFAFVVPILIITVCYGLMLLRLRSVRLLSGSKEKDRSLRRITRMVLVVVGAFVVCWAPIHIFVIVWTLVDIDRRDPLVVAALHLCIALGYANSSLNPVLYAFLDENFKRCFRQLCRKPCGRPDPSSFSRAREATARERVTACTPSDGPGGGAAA
Chain of Opioid receptors; delta & kappa (Homo sapiens) (P41145 whole entry, looked up): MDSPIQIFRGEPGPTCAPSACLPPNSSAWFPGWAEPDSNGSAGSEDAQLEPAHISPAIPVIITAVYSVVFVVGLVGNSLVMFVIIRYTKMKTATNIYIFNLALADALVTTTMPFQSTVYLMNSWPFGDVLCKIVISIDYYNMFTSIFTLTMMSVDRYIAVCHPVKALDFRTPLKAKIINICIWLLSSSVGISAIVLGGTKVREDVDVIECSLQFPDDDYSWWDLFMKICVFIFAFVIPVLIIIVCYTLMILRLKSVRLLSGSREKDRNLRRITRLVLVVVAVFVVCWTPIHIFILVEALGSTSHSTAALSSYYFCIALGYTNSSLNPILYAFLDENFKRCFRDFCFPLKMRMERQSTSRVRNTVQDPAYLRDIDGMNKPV

Structure (SMILES)	ED50 (Mus musculus [1])	Ratio ED50 (Mus musculus [2])	ED50 (Mus musculus [3])	Ratio (Mus musculus [4])	Selectivity ratio (HEK293 [5])	Selectivity ratio (HEK293 [6])	Ratio (Mus musculus [7])	Selectivity ratio (HEK293 [8])	Selectivity ratio (HEK293 [9])	Activity [10]
CNCCNC(=O)COCC(=O)NCC(=O)NCC(=O)NCC(=O)Nc1cccc([C@@H](CN2CCCC2)N(C)C(=O)Cc2ccc(Cl)c(Cl)c2)c1	0.4 nmol	11.43	0.035 nmol							
CN(C(=O)Cc1ccc(Cl)c(Cl)c1)[C@H](CN1CCCC1)c1cccc(NC(=O)CNC(=O)CNC(=O)COCC(=O)NCCCNC=O)c1	0.47 nmol	23.44	0.02 nmol							
CNCCCCNC(=O)COCC(=O)NCC(=O)Nc1cccc([C@@H](CN2CCCC2)N(C)C(=O)Cc2ccc(Cl)c(Cl)c2)c1	0.48 nmol	2.81	0.17 nmol							
CNCCCNC(=O)COCC(=O)NCC(=O)NCC(=O)Nc1cccc([C@@H](CN2CCCC2)N(C)C(=O)Cc2ccc(Cl)c(Cl)c2)c1	0.58 nmol	130.91	0.0045 nmol	9.97	66	66	28.5	66	66	Active
CNCCCCNC(=O)COCC(=O)Nc1cccc([C@@H](CN2CCCC2)N(C)C(=O)Cc2ccc(Cl)c(Cl)c2)c1	0.52 nmol	3.45	0.15 nmol							
